Data published in paper PMC9814530, “Rapid de novo discovery of peptidomimetic affinity reagents for human angiotensin converting enzyme 2” (Communications Chemistry, 2022).
pKd: −log10 of the molar value. *1 amine or outer side, *2 acyl side, *3 side chain or, on linkers, in order; H or OH if unused. Where a SMILES comes first, the peptide text is derived from it. Where no end group is shown, it is not given here. [ ]: non-standard residue; d: D form. Phe(3,4-(OMe)2) = COc1ccc(C[C@H](N)C(=O)O)cc1OC; Phe(3,4-F2) = N[C@@H](Cc1ccc(F)c(F)c1)C(=O)O; Ala(4-thiazolyl) = N[C@@H](Cc1cscn1)C(=O)O; X1 = O=C(C1(c2ccccc2)CCN([*:1])CC1)[*:2]; Phe(4-NH2) = Nc1ccc(C[C@H](N)C(=O)O)cc1; Met(O2) = CS(=O)(=O)CC[C@H](N)C(=O)O; Ala(cPr) = N[C@@H](CC1CC1)C(=O)O; Hyp = O=C(O)[C@@H]1C[C@@H](O)CN1; hArg = N=C(N)NCCCC[C@H](N)C(=O)O; Cha = N[C@@H](CC1CCCCC1)C(=O)O; 4Amb = NCc1ccc(C(=O)O)cc1; β3hS = N[C@@H](CO)CC(=O)O; Orn = NCCC[C@H](N)C(=O)O; βAla = NCCC(=O)O

Experiments:
ACE2 [1] = biological target: T1, ACE2 (Homo sapiens, UniProt Q9BYF1); assay: BLI binding competition of known ACE2 binders (AngII, MLN-4760) on the ABP-ACE2 interaction; set-up: Soluble ACE2 (5 µL, 0.62 mg/mL) was mixed with 50 µL normal human serum; conditions: immobilized biotinylated peptide; for inhibition of ABP binding to ACE2 by AngII: 500 nM ACE2 + 5 uM AngII (10-fold excess); for inhibition of ABP binding to ACE2 by MLN-4760: 500 nM ACE2 + 5 uM MLN-4760 (10-fold excess)
T1 sequence (Q9BYF1 18-740 limits assumed): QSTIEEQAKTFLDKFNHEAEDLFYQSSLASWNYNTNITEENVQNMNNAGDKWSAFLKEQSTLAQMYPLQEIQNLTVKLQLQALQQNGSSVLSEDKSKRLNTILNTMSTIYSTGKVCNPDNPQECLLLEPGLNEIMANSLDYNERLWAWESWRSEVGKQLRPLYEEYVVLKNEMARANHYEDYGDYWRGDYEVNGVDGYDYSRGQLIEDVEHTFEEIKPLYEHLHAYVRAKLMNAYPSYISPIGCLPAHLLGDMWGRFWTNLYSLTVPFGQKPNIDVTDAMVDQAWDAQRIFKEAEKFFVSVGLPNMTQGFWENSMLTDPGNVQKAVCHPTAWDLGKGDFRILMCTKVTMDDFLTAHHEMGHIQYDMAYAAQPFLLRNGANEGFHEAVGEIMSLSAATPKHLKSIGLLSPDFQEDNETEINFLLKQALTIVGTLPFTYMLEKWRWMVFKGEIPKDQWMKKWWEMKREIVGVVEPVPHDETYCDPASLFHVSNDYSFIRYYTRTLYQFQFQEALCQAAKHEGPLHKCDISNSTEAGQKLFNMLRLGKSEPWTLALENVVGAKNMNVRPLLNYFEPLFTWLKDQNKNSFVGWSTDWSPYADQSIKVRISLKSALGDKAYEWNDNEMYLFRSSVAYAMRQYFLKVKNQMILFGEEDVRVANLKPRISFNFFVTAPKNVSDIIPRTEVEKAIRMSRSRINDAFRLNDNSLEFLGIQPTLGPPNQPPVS

12ca5 = assay: BLI binding to an unrelated (off-target) protein; conditions: BLI, 12ca5 at 500 nM
Method: Peptide binding validation was carried out using the ForteBio Octet RED96 system. The chamber temperature was kept constant at 30 °C with a plate agitation speed at 1000 rpm. Briefly, streptavidin (SA)-coated biosensor tips were dipped into 200 μL of 1.0–2.0 μM biotinylated peptide solution (in a kinetic buffer (K.B.): 1 × PBS with 0.1% BSA and 0.02% Tween-20) for peptides immobilization. Once loaded with peptides, the tips were then moved into solutions containing various concentrations (1000, 500, 250, 125, and 62.5 nM) of recombinant ACE2 protein (purchased from Sino Biological, Catalog number 10108-H08H) in the K.B. to obtain the association curve. After the 180 s association step, the tips were moved back into the K.B. to obtain the dissociation curve. Buffer-only and protein-only conditions (concentration at 1000 nM) were used as references for background subtraction. The association and dissociation curves were fitted with the ForteBio Biosystems Data Analysis Software under 5 experimental conditions (n = 5, global fitting algorithm, binding model 1:1) to calculate the apparent dissociation constant (KD). […]
4.4 The binding of ABP noncanonical peptides to an unrelated protein
N6, and N8 to an unrelated protein, 12ca5, measured by BLI at concentration
(§1) (1 picture or pasted object on this page, not shown here)

ACE2 [2] = biological target: T1, ACE2; assay: Bio-layer interferometry (BLI) binding of immobilized biotinylated peptides to ACE2; conditions: BLI; for binding to ACE2 by BLI (in words): scrambled peptides tested at 250 nM ACE2; for pKd: biotinylated peptide on streptavidin tips, ACE2 1000-62.5 nM, 30 °C, global 1:1 fit, read-out: KD (dissociation constant) to ACE2
Method: Peptide binding validation was carried out using the ForteBio Octet RED96 system. The chamber temperature was kept constant at 30 °C with a plate agitation speed at 1000 rpm. Briefly, streptavidin (SA)-coated biosensor tips were dipped into 200 μL of 1.0–2.0 μM biotinylated peptide solution (in a kinetic buffer (K.B.): 1 × PBS with 0.1% BSA and 0.02% Tween-20) for peptides immobilization. Once loaded with peptides, the tips were then moved into solutions containing various concentrations (1000, 500, 250, 125, and 62.5 nM) of recombinant ACE2 protein (purchased from Sino Biological, Catalog number 10108-H08H) in the K.B. to obtain the association curve. After the 180 s association step, the tips were moved back into the K.B. to obtain the dissociation curve. Buffer-only and protein-only conditions (concentration at 1000 nM) were used as references for background subtraction. The association and dissociation curves were fitted with the ForteBio Biosystems Data Analysis Software under 5 experimental conditions (n = 5, global fitting algorithm, binding model 1:1) to calculate the apparent dissociation constant (KD).
Supplementary Note 4: Binding affinity measurements
4.1 BLI raw binding data of noncanonical peptides […]
affinity was reported using the kinetic fitting results ( KD is calculated by divide the […]
off rate by on rate). […] The ACE2
as §1
4.2 BLI raw binding data of canonical peptides
Supplementary Fig. 20. The BLI binding curve fitting (red lines) of ABP C1-C4 and ABP C7-C9 from Library 1 AS-MS against ACE2.
ACE2 concentration was 250 nM.

ACE2 [3] = biological target: T1, ACE2; assay: ELISA detection of ACE2 coated from 1 x PBS; type: binding; conditions: ACE2 in 1 x PBS 10 pM-100 nM coated; biotinylated peptide 100 nM; streptavidin-HRP, TMB, A450
Method: However, we observed a decreased detection sensitivity presumably due to the decreased amount of ACE2 being immobilized on the plate with many other serum proteins present. […] The plate was incubated with ABP N1 or control peptide, followed by streptavidin-HRP and TMB substrate. Absorbance was measured at 450 nm. The experiment was performed in technical triplicates (n = 3). Each data point, the mean signal as a bar, and error bars from experimental standard deviation, and statistical significance calculated with the unpaired Student’s t-test are shown. A serial dilution of soluble ACE2 was coated onto an ELISA plate (96-well format) overnight at 4 °C. The next day, the plate was blocked with 5% BSA in 1 × PBS supplement with 0.05% Tween-20 (PBST, pH 7.4) for 2–3 h at room temperature. […] Control groups are biotinylated peptide ABP N8 and PBST alone. The supernatant was then removed, and the wells were washed with PBST (3× 200 µL). Streptavidin-HRP conjugate in PBST (0.25 µg/mL, 100 µL) was added to each well and incubated for 30 min at room temperature. The plate was PBST-washed again (3 × 200 µL) before color development with 100 µL 1-Step™ Ultra TMB-ELISA Substrate Solution (Thermo Fisher, Catalog number 34028). After 10 min, the reaction was quenched with 2.0 M sulfuric acid (100 µL). Finally, the absorbance at 450 nm was measured on a microplate reader (BioTek) for all treated wells. […]

Molecule | binding to unrelated protein 12ca5 (in words) (12ca5) | binding to ACE2 by BLI (in words) (ACE2 [2]) | further results
COc1ccc(C[C@H](NC(=O)[C@H](Cc2ccc(F)c(F)c2)NC(=O)[C@@H]2C[C@@H](O)CN2C(=O)[C@H]2CCCN2C(=O)[C@H]2CCCN2C(=O)CNC(=O)[C@H](CC2CC2)NC(=O)[C@H](Cc2cscn2)NC(=O)[C@@H](N)CC2CC2)C(=O)N[C@@H](Cc2cscn2)C(=O)NCCC(=O)NCc2ccc(C(=O)N[C@@H](CCCCN)C(N)=O)cc2)cc1OC [ABP N4] (H-[Ala(cPr)][Ala(4-thiazolyl)][Ala(cPr)]G[dP][dP][Hyp][Phe(3,4-F2)][Phe(3,4-(OMe)2)][Ala(4-thiazolyl)][βAla][4Amb]K-NH2) | minimal binding | – | inhibition of ABP binding to ACE2 by AngII (ACE2 [1]): not inhibited; inhibition of ABP binding to ACE2 by MLN-4760 (ACE2 [1]): completely inhibited; binding to unrelated protein 12ca5 (in words) (12ca5; listed as N4): No apparent binding
CS(=O)(=O)CC[C@H](NC(=O)[C@H]1CCCN1C(=O)[C@H](CCC(N)=O)NC(=O)CNC(=O)[C@H](Cc1ccc(F)c(F)c1)NC(=O)[C@H](Cc1cscn1)NC(=O)[C@@H](N)CC1CC1)C(=O)N[C@@H](CC1CCCCC1)C(=O)N[C@@H](CCC(N)=O)C(=O)N[C@@H](Cc1cscn1)C(=O)NCCC(=O)N[C@@H](Cc1cscn1)C(=O)N[C@@H](CCCCN)C(N)=O [ABP N5] (H-[Ala(cPr)][Ala(4-thiazolyl)][Phe(3,4-F2)]GQ[dP][Met(O2)][Cha]Q[Ala(4-thiazolyl)][βAla][Ala(4-thiazolyl)]K-NH2; N-terminus assumed) | No apparent binding | no binding | –
CS(=O)(=O)CC[C@H](NC(=O)[C@H](Cc1ccc(F)c(F)c1)NC(=O)[C@H](CCCN)NC(=O)[C@@H](N)CC1CC1)C(=O)N1C[C@H](O)C[C@H]1C(=O)N[C@@H](Cc1cscn1)C(=O)N1CCC[C@@H]1C(=O)N[C@@H](CCC(N)=O)C(=O)N[C@@H](Cc1ccc(F)c(F)c1)C(=O)N[C@@H](CC1CCCCC1)C(=O)N[C@@H](CC1CCCCC1)C(=O)NCCC(=O)N[C@@H](CCCCN)C(N)=O [ABP N6] (H-[Ala(cPr)][Orn][Phe(3,4-F2)][Met(O2)][Hyp][Ala(4-thiazolyl)][dP]Q[Phe(3,4-F2)][Cha][Cha][βAla]K-NH2) | minimal binding | – | inhibition of ABP binding to ACE2 by AngII (ACE2 [1]): not inhibited; inhibition of ABP binding to ACE2 by MLN-4760 (ACE2 [1]): not inhibited; binding to unrelated protein 12ca5 (in words) (12ca5; listed as N6): No apparent binding
CS(=O)(=O)CC[C@H](NC(=O)[C@H](Cc1ccc(F)c(F)c1)NC(=O)[C@H](CCS(C)(=O)=O)NC(=O)[C@H](CC1CCCCC1)NC(=O)[C@H](CC(=O)O)NC(=O)C1(c2ccccc2)CCN(C(=O)CCNC(=O)CNC(=O)[C@H]2CCCN2C(=O)[C@H](CCCCNC(=N)N)NC(=O)[C@H](Cc2cscn2)NC(=O)[C@@H](N)CC2CC2)CC1)C(=O)N[C@@H](CCCCN)C(N)=O [ABP N8] (H-[Ala(cPr)][Ala(4-thiazolyl)][hArg][dP]G[βAla][X1]D[Cha][Met(O2)][Phe(3,4-F2)][Met(O2)]K-NH2; N-terminus assumed) | No apparent binding | no binding | ELISA detection of ACE2 (in words) (ACE2 [3]): no binding
CS(=O)(=O)CC[C@H](NC(=O)C[C@H](CO)NC(=O)[C@H](CC1CC1)NC(=O)[C@@H](N)Cc1cscn1)C(=O)N[C@@H](CC1CCCCC1)C(=O)N[C@@H](Cc1cscn1)C(=O)N[C@@H](CCCN)C(=O)N[C@@H](Cc1ccc(F)c(F)c1)C(=O)N[C@@H](CCCN)C(=O)N[C@@H](CCC(N)=O)C(=O)NCC(=O)N[C@@H](Cc1ccc(N)cc1)C(=O)N[C@@H](CCCCN)C(N)=O [Scrm N1.1] (H-[Ala(4-thiazolyl)][Ala(cPr)][β3hS][Met(O2)][Cha][Ala(4-thiazolyl)][Orn][Phe(3,4-F2)][Orn]QG[Phe(4-NH2)]K-NH2; N-terminus assumed) | – | No apparent binding | –
CS(=O)(=O)CC[C@H](N)C(=O)N[C@@H](CCCN)C(=O)N[C@@H](CC1CCCCC1)C(=O)N[C@@H](Cc1ccc(F)c(F)c1)C(=O)N[C@@H](Cc1ccc(F)c(F)c1)C(=O)N[C@@H](CO)CC(=O)NCC(=O)N[C@@H](Cc1cscn1)C(=O)N[C@@H](Cc1cscn1)C(=O)N[C@@H](CC1CC1)C(=O)N[C@@H](CCC(N)=O)C(=O)N[C@@H](CCCN)C(=O)N[C@@H](CCCCN)C(N)=O [Scrm N1.2] (H-[Met(O2)][Orn][Cha][Phe(3,4-F2)][Phe(3,4-F2)][β3hS]G[Ala(4-thiazolyl)][Ala(4-thiazolyl)][Ala(cPr)]Q[Orn]K-NH2; N-terminus assumed) | – | No apparent binding | –
LHKQFGWHWFGFK-NH2 [ABP C3] | – | – | pKd (ACE2 [2]): 7.46
LQAKPVPQFWPFK-NH2 [ABP C5] | – | no binding | –
LQKFLGERFPGWK-NH2 [ABP C6] | – | no binding | –
LQRGVFGFPYRVK-NH2 [ABP C7] | – | – | pKd (ACE2 [2]): 7.59
LQWHPAYWFMQVK-NH2 [ABP C8] | – | – | pKd (ACE2 [2]): 7.44
